# Source: ChEMBL document CHEMBL4364276, “Discovery of 4-phenyl-2H-benzo[b][1,4]oxazin-3(4H)-one derivatives as potent and orally active PI3K/mTOR dual inhibitors” (Eur J Med Chem, 2019)
# Key:
# [1] = target: Protein kinase C beta type (Homo sapiens) (UniProt P05771); test: Inhibition of human PKCb1 at 100 nM using Histone H1 as substrate by [gamma-33P]-ATP assay
# [2] = target: MAP kinase-activated protein kinase 3 (Homo sapiens) (UniProt Q16644); test: Inhibition of human MAPKAPK3 at 100 nM using KKLNRTLSVA as substrate by [gamma-33P]-ATP assay
# [3] = Half life in Sprague-Dawley rat at 10 mg/kg, po measured upto 24 hrs by LC-MS/MS analysis; assay type: ADME, organism-based; details: in vivo
# [4] = target: Tyrosine-protein kinase Lyn (Homo sapiens) (UniProt P07948); test: Inhibition of human LYN at 100 nM using poly[Glu:Tyr] (4:1) as substrate by [gamma-33P]-ATP assay
# [5] = target: Kinase suppressor of Ras 2 (Homo sapiens) (UniProt Q6VAB6); test: Inhibition of human KSR2 at 100 nM using KRREILSRRPSYR as substrate by [gamma-33P]-ATP assay
# [6] = target: DNA-dependent protein kinase catalytic subunit (Homo sapiens) (UniProt P78527); test: Inhibition of human DNAPK at 100 nM using EPPLSQEAFADLWKK as substrate by [gamma-33P]-ATP assay
# [7] = target: Mitogen-activated protein kinase 7 (Homo sapiens) (UniProt Q13164); test: Inhibition of human ERK5 at 100 nM using MBP as substrate by [gamma-33P]-ATP assay
# [8] = target: Mitogen-activated protein kinase kinase kinase 9 (Homo sapiens) (UniProt P80192); test: Inhibition of human MLK1 at 100 nM using casein as substrate by [gamma-33P]-ATP assay
# Sequence of Mitogen-activated protein kinase kinase kinase 9 (Homo sapiens) (P80192 whole entry, looked up): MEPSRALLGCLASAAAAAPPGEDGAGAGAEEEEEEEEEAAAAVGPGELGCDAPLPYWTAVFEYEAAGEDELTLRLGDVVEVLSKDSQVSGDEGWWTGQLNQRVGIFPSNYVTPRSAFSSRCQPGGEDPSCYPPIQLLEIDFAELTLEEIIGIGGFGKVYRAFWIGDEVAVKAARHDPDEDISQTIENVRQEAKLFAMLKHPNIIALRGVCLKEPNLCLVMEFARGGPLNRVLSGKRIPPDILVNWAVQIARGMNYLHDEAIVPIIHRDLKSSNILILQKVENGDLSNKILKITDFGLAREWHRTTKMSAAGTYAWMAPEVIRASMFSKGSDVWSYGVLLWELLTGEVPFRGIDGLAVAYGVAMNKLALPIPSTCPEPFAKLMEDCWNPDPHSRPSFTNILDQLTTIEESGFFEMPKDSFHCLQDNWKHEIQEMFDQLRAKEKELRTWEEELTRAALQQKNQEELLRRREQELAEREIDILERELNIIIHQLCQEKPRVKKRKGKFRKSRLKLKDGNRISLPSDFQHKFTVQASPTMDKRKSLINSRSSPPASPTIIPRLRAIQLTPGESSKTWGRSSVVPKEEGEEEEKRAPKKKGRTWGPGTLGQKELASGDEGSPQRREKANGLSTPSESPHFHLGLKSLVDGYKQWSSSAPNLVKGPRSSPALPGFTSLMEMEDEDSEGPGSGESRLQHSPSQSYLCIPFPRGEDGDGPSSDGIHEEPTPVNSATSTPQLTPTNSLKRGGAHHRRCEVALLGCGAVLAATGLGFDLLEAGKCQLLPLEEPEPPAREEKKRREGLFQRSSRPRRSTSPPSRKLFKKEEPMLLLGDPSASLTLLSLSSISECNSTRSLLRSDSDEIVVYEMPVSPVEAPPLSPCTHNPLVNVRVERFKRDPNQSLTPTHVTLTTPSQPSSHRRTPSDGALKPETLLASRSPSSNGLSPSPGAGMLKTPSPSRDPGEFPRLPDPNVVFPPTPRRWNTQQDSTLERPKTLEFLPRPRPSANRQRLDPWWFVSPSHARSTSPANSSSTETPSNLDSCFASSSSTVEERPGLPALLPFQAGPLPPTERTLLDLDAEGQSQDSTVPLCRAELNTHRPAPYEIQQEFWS
# [9] = target: Serine/threonine-protein kinase haspin (Homo sapiens) (UniProt Q8TF76); test: Inhibition of human haspin at 100 nM using Histone H3 as substrate by [gamma-33P]-ATP assay
# [10] = target: CDK6/cyclin D1 (Homo sapiens) (UniProt P24385+Q00534); test: Inhibition of human CDK6/cyclin-D1 at 100 nM using RB protein as substrate by [gamma-33P]-ATP assay; assay type: protein-complex assay
# [11] = Volume of distribution at steady state in Sprague-Dawley rat at 1 mg/kg, iv measured upto 24 hrs by LC-MS/MS analysis; assay type: ADME, organism-based; details: in vivo, read-out: Vdss
# [12] = target: Platelet-derived growth factor receptor alpha (Homo sapiens) (UniProt P16234); test: Inhibition of human PDGFRalpha at 100 nM using poly[Glu:Tyr] (4:1) as substrate by [gamma-33P]-ATP assay
# [13] = target: eIF-2-alpha kinase GCN2 (Homo sapiens) (UniProt Q9P2K8); test: Inhibition of human EIF2AK4 at 100 nM using MBP as substrate by [gamma-33P]-ATP assay
# Sequence of eIF-2-alpha kinase GCN2 (Homo sapiens) (Q9P2K8 whole entry): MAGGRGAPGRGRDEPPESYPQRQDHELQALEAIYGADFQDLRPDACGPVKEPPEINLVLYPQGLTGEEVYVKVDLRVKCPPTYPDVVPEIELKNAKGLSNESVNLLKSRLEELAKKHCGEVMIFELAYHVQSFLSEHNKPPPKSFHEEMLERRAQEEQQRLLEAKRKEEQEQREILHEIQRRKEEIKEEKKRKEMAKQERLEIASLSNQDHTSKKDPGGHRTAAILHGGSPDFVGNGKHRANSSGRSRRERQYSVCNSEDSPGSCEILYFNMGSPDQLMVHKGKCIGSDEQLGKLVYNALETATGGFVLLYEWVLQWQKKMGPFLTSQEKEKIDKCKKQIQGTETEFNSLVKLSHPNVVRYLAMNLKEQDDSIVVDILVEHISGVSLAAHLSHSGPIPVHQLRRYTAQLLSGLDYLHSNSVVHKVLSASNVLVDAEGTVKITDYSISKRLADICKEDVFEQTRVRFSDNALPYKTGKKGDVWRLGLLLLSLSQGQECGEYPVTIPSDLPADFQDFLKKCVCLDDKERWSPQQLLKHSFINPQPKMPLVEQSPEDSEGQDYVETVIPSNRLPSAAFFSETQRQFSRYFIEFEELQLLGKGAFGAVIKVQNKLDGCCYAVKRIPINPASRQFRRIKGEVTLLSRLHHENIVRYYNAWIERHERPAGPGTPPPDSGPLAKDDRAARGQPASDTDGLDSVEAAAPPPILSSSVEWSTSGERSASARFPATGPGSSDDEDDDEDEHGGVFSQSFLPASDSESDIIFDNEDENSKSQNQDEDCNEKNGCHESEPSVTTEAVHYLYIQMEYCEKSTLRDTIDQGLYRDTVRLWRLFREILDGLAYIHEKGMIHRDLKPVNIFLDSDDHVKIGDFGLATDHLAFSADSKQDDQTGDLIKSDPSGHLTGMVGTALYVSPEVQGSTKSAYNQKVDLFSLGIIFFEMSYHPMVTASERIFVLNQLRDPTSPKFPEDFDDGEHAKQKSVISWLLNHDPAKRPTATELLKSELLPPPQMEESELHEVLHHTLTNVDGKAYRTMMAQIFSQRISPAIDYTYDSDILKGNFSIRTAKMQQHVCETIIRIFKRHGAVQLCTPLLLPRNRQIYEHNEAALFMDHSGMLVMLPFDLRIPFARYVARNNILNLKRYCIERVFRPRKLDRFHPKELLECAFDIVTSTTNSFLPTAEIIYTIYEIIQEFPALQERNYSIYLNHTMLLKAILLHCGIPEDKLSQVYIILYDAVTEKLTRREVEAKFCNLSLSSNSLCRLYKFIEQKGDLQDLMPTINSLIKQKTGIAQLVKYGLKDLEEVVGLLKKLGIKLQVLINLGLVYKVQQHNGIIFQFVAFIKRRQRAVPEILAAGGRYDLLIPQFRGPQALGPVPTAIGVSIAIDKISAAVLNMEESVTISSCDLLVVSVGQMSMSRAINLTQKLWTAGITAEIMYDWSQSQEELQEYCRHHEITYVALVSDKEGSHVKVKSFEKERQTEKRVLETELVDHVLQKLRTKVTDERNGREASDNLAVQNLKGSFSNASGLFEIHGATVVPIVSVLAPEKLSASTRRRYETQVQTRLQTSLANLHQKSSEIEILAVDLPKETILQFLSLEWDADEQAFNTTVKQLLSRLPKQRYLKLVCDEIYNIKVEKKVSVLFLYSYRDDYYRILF
# [14] = target: Serine/threonine-protein kinase B-raf (Homo sapiens) (UniProt P15056); test: Inhibition of human BRAF at 100 nM using MEK1 (K97R) as substrate by [gamma-33P]-ATP assay
# [15] = target: Tyrosine-protein kinase FRK (Homo sapiens) (UniProt P42685); test: Inhibition of human FRK at 100 nM using poly[Glu:Tyr] (4:1) as substrate by [gamma-33P]-ATP assay
# [16] = target: Calcium/calmodulin-dependent protein kinase type 1 (Homo sapiens) (UniProt Q14012); test: Inhibition of human CAMK1A at 100 nM using KKALRRQETVDAL as substrate by [gamma-33P]-ATP assay
# [17] = system: A549; test: cells; details: Homo sapiens, A549, 72 h
# [18] = target: Serine/threonine-protein kinase PLK3 (Homo sapiens) (UniProt Q9H4B4); test: Inhibition of human PLK3 at 100 nM using casein as substrate by [gamma-33P]-ATP assay
# [19] = target: Serine/threonine-protein kinase DCLK1 (Homo sapiens) (UniProt O15075); test: Inhibition of human DCAMKL1 at 100 nM using KKLNRTLSFAEPG as substrate by [gamma-33P]-ATP assay
# [20] = target: SRSF protein kinase 3 (Homo sapiens) (UniProt Q9UPE1); test: Inhibition of human MSSK1 at 100 nM using GRSRSRSRSR as substrate by [gamma-33P]-ATP assay
# Sequence of SRSF protein kinase 3 (Homo sapiens) (Q9UPE1 whole entry): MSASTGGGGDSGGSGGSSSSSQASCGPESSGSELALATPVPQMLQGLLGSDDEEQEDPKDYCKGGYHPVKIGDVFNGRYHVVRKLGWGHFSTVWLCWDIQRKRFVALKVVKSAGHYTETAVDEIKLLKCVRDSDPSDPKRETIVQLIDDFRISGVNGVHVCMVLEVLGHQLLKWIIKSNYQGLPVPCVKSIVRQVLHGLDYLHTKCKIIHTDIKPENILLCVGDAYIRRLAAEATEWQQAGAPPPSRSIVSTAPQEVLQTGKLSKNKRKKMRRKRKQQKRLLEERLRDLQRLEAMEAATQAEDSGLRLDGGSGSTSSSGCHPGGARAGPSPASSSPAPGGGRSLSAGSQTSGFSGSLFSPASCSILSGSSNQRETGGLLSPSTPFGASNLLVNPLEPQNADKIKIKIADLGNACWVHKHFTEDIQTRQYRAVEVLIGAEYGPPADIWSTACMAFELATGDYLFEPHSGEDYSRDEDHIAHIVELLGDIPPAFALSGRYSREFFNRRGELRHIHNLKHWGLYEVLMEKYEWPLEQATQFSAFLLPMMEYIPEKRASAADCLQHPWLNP
# [21] = target: Bone morphogenetic protein receptor type-1B (Homo sapiens) (UniProt O00238); test: Inhibition of human ALK6 at 100 nM using casein as substrate by [gamma-33P]-ATP assay
# [22] = target: Tyrosine-protein kinase Mer (Homo sapiens) (UniProt Q12866); test: Inhibition of human c-MER at 100 nM using poly[Glu:Tyr] (4:1) as substrate by [gamma-33P]-ATP assay
# [23] = target: Dual specificity mitogen-activated protein kinase kinase 4 (Homo sapiens) (UniProt P45985); test: Inhibition of human MKK4 at 100 nM using JNK1 as substrate by [gamma-33P]-ATP assay
# [24] = target: Serine/threonine-protein kinase greatwall (Homo sapiens) (UniProt Q96GX5); test: Inhibition of human MASTL at 100 nM using ERK2 as substrate by [gamma-33P]-ATP assay
# Sequence of Serine/threonine-protein kinase greatwall (Homo sapiens) (Q96GX5 whole entry): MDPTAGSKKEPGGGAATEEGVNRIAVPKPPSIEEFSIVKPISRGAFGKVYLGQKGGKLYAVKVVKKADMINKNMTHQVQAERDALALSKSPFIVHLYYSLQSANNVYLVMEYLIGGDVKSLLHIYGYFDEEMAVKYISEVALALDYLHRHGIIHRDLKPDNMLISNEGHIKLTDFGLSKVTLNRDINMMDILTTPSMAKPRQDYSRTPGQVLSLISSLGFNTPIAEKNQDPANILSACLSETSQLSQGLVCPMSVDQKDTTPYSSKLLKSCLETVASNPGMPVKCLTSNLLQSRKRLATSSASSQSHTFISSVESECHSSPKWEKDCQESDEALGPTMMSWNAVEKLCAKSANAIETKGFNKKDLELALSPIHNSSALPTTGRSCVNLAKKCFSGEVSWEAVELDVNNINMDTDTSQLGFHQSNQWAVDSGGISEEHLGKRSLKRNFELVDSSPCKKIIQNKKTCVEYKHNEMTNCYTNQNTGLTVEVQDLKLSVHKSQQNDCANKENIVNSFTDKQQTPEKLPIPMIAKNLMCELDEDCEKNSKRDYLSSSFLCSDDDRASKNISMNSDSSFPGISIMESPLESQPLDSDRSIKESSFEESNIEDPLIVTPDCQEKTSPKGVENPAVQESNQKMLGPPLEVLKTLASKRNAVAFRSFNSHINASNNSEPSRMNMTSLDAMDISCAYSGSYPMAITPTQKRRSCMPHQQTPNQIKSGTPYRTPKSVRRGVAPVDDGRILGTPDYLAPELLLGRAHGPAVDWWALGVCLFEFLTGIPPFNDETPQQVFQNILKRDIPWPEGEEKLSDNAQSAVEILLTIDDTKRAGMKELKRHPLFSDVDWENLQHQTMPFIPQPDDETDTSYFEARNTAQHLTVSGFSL
# [25] = target: Mitogen-activated protein kinase kinase kinase kinase 5 (Homo sapiens) (UniProt Q9Y4K4); test: Inhibition of human KHS at 100 nM using MBP as substrate by [gamma-33P]-ATP assay
# [26] = target: Serine/threonine-protein kinase 32B (Homo sapiens) (UniProt Q9NY57); test: Inhibition of human STK32B at 100 nM using MBP as substrate by [gamma-33P]-ATP assay
# [27] = target: Mitogen-activated protein kinase kinase kinase 3 (Homo sapiens) (UniProt Q99759); test: Inhibition of human MEKK3 at 100 nM using MBP as substrate by [gamma-33P]-ATP assay
# [28] = target: Dual serine/threonine and tyrosine protein kinase (Homo sapiens) (UniProt Q6XUX3); test: Inhibition of human RIPK5 at 100 nM using MBP as substrate by [gamma-33P]-ATP assay
# [29] = target: Epidermal growth factor receptor (Homo sapiens) (UniProt P00533); test: Inhibition of human EGFR at 100 nM using poly[Glu:Tyr] (4:1) as substrate by [gamma-33P]-ATP assay
# [30] = target: Fibroblast growth factor receptor 1 (Homo sapiens) (UniProt P11362); test: Inhibition of human FGFR1 at 100 nM using KKKSPGEYVNIEFG as substrate by [gamma-33P]-ATP assay
# Sequence of Fibroblast growth factor receptor 1 (Homo sapiens) (P11362 22-822 limits assumed): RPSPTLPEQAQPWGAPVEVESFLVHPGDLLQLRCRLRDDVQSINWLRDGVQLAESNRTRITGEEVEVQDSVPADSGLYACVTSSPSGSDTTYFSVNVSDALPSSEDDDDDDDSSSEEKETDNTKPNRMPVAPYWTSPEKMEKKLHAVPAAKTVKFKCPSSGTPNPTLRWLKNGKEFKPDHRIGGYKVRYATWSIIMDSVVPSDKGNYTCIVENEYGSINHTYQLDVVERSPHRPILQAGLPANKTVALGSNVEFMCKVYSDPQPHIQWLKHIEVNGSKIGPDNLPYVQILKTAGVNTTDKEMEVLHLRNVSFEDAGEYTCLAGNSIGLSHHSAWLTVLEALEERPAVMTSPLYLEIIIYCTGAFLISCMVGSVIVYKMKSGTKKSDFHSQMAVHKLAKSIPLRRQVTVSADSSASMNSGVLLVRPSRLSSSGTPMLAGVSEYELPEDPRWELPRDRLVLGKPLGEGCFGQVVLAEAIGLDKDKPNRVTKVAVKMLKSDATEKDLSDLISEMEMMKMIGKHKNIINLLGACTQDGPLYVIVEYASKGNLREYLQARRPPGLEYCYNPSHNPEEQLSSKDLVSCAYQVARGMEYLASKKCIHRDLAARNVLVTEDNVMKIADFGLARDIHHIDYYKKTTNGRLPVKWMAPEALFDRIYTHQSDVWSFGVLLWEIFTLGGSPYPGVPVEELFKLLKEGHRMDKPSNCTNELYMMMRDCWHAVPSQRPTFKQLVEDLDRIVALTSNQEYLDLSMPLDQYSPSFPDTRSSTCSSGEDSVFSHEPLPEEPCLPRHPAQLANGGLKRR
# [31] = target: Casein kinase II subunit alpha (Homo sapiens) (UniProt P68400); test: Inhibition of human CK2A at 100 nM using RRRDDDSDDD as substrate by [gamma-33P]-ATP assay
# [32] = system: HeLa; test: Inhibition of colony formation in human HeLa cells incubated for 2 weeks crystal violet staining based assay; assay type: functional, cell-based
# [33] = target: CDK1/Cyclin A (Homo sapiens) (UniProt P06493+P20248); test: Inhibition of human CDK1/Cyclin-A at 100 nM using Histone H1 as substrate by [gamma-33P]-ATP assay; assay type: protein-complex assay
structure (smiles),measurement,setting,value
COc1ccc(N2C(=O)COc3ccc(-c4cnc(OC)c(NS(=O)(=O)c5ccc(F)cc5)c4)cc32)cc1,inhibition,[1],7.83%
same,inhibition,[2],12.8%
same,half-life,[3],107 min
same,inhibition,[4],-1.62%
same,inhibition,[5],20.8%
same,inhibition,[6],74.4%
same,inhibition,[7],-7.53%
same,inhibition,[8],0.68%
same,inhibition,[9],12.1%
same,inhibition,[10],9.71%
same,Vd,[11],1.2 L/kg
same,inhibition,[12],-1.93%
same,inhibition,[13],8.65%
same,inhibition,[14],5.74%
same,inhibition,[15],8.7%
same,inhibition,[16],1.42%
same,IC50,[17],1350 nM
same,inhibition,[18],-5.25%
same,inhibition,[19],-5.81%
same,inhibition,[20],8.87%
same,inhibition,[21],2.39%
same,inhibition,[22],5.47%
same,inhibition,[23],-4.2%
same,inhibition,[24],-1.96%
same,inhibition,[25],-9.84%
same,inhibition,[26],-3.89%
same,inhibition,[27],2.85%
same,inhibition,[28],9.57%
same,inhibition,[29],8.4%
same,inhibition,[30],-9.98%
same,inhibition,[31],12.7%
same,inhibition,[32],Dose-dependent effect
same,inhibition,[33],16%
